# Tests used:
# TNF-α mRNA = experiment: TNF-α knockdown in human monocytes (branch DNA);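 also: LPS-activated human CD14+ monocytes, TNF-α mRNA read by branched DNA assay and normalized to cypB mRNA, knockdown compared with random-sequence Qneg siRNA as negative control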
# Description: For mRNA measurement, branch DNA technology from Genospectra (CA) was used according to manufacturer's specification. Human monocytes (CD14+) treated with LPS induce TNF-α-specific mRNA within approximately 2 hrs, followed by peak levels of TNF-α protein 2 hrs later. siRNAs were screened for knockdown activity by transfecting monocytes with siRNA candidate sequences using Lipofectamine 2000, treating infected cells with LPS, and measuring TNF-α mRNA levels approximately 16 hrs later.
# To quantitate mRNA level in the cells, both house keeping gene (cypB) and target gene (TNF-α) mRNA were measured, and the reading for TNF-α was normalized with cypB to obtain relative luminescence unit.
# Qneg represents a random siRNA sequence and functions as the negative control in these experiments.
# [1] = test system: human TNF-α transgenic mice; experiment: RA paw score in human TNF-α transgenic mice; details: for RA progression by paw score at week 8 (FIG. 4): siRNA delivered with PN73
# Description: For human TNF-α animal disease models, two transgenic models were used. The tg197 mice were acquired from Pasteur Hellenic Institute (Athens, Greece), and the B6.SJL-Tg(TNF) N21 mice were purchased from Taconic, Inc. (Germantown, N.Y.). The genotypes of both human TNF-α transgenic mouse models were performed by suppliers. […] All treatments were by tail vein injection twice a week. […] A similar dose regimen was used for B6.SJL-Tg(TNF) N21 mice. Clinical scores were based on a previously described scoring system (2, 3) as follows: 0 (normal), 1 (edema or distortion of paw or ankle joints), 2 (distortion of paw and ankle joints), or 3 (ankylosis of wrist or ankle joints). The sum of all four paws was scored twice a week with a maximum score of 12 per mouse.
# For Hellenic transgenic mice, RA scores were determined (blinded to treatment) using the following criteria: 0, normal; 1, edema or distortion of paw or ankle joints; 2 distortion of paw and ankle joints; 3, ankylosis of wrist or ankle joints.
# Human NF-α expressing mice were purchase from the Hellenic Pasture Institute, Greece) at 5 weeks old. […] During the injection periods, plasma samples were collected for ELISA testing (R&D Systems, Cat#SSTA00C), and paw scores were taken twice a week as an accepted index of RA disease progression and therapeutic efficacy (Table 19).
# Due to the difference in the starting point (some animals present with scores at earlier points), the scores have been adjusted to 0 for all animals in the experiments. Each paw is given a score between 0 and 3, with the highest score of 12, according to the following scoring index. • 0: Normal • 1: edema or distortion of paw or ankle joints • 2: distortion of paw and ankle joints • 3: ankylosis of wrist or ankle joints.
# 9L/LacZ cells [2] = experiment: siRNA uptake by flow cytometry in 9L/LacZ cells; assay type: cell-based, rat; details: peptide/siRNA complex
# Description: (§2) Cells were plated the day before so that they were ˜50-80% confluent at time of transfection. For complexes, siRNA and peptide were diluted in Opti-MEM® media (Invitrogen), then mixed and allowed to complex 5-10 minutes before adding to cells washed with PBS. Final concentration of siRNA was 500 nM at each peptide concentration (2-50 μM). The conjugate, also diluted in Opti-MEM® media, was added to cells at final concentrations ranging from 62.5 nM to 500 nM. At 500 nM concentration, we also combined with 20% FBS just before adding to washed cells. Cells were transfected for 3 hours at 37° C., 5% CO2. Cells were washed with PBS, treated with trypsin and then analyzed by flow cytometry. siRNA uptake was measured by intensity of Cy5 fluorescence and cellular viability assessed by addition of propidium iodide.
# Uptake was measured using 9L/lacZ cells transfected as described in Example 2. Cells were washed with PBS, treated with trypsin and then analyzed by flow cytometry. siRNA uptake was measured by intensity of FAM fluorescence and cellular viability assessed by addition of propidium iodide.
# 9L/LacZ cells [3] = experiment: beta-galactosidase knockdown assay of siRNA transfection efficiency; assay type: cell-based, rat; details: Histone H2B plus siRNA
# Description: For H3, H4 and H2b, a series of experiments was performed to complex these polynucleotide delivery-enhancing polypeptides with siRNA in different ratios. Generally this was initiated with a 1:0.01 to 1:50 of siRNA/histone ratio. To each well in a 96-well microtiter plate, 40 pm siRNA was added. Each well contained beta-gal cells at 50% confluency.
# Transfections were performed with either regular siRNA or siRNA complexed with one of the above-identified histone proteins on 9L/beta-gal cells. The siRNA was designed to specifically knock down beta-galactosidase mRNA, and activities are expressed as percentage of beta-gal activities from control (control cells were transfected using lipofectamine without the polynucleotide delivery-enhancing polypeptide).
# For beta-galactosidase assays, 9L/LacZ cells, a cell line constitutively expressing beta-galactosidase, were used. 9L/LacZ cells are rat gliosarcoma fibroblast cells that constitutively express LacZ and were obtained from ATCC (#CRL-2200). […]
# The transfection efficiency inversely correlates with the amount of beta-galactosidase activity measured from the cell lysate. Upon transfection, a measured decrease in beta-galactosidase activity indicates a successful transfection. Thus, in the absence of transfection, the measured beta-galactosidase activity is 100% and the transfection efficiency is 0%. […]
# human TNF-α = experiment: plasma human TNF-α by ELISA in human TNF-α transgenic mice; assay type: in vivo, mouse; details: average of the mice
# Description: For determination of TNF-α level, For the analysis of experiments involving transgenic mice, plasma samples were separated from whole blood collected by orbital bleeding. Plasma levels of hTNF-α were determined by ELISA at a 1:2 dilution according to the manufacturer's instructions (R&D systems, Minneapolis, Minn.).
# For Taconic mice, TNF-α levels in plasma were determined by ELISA (R&D systems, Minneapolis, Minn.) and treatment schedules were same as Hellenic transgenic hTNF-αtransgenic mice.
# [4] = test system: mouse tail fibroblast (MTF) cells; assay type: cell-based; details: peptide/siRNA complex
# Description: as §2
# The materials and methods used for the experiments performed in 9L/LacZ cells and mouse fibroblast cells are generally the same as described above, except that for the murine experiments, 9L/LacZ cells were replaced with mouse tail fibroblasts.
# [5] = test system: interferon response markers (IL-1β, INF-α, IL-6, IL-8, IL-12, MIP-1α, IFN-γ, TNF-α); experiment: interferon responsiveness, marker protein ELISA; assay type: cell-based; details: for Relative protein expression level of IFN-γ / Relative protein expression level of IL-12 / Relative protein expression level of INF-α: Lipofectamine transfection; for interferon response (ELISA): regardless of transfection reagent
# Description: (§1) Interferon responsiveness was assayed by ELISA (protein) and bDNA (mRNA levels).
# IL-1β mRNA = experiment: interferon responsiveness, IL-1β mRNA (bDNA); assay type: cell-based; details: siRNA complexed with lipofectamine; 100 nM or 200 nM for TNF-α9
# Description: as §1
# TNF-α protein = TNF-α protein ELISA in human monocytes; assay type: cell-based; details: siRNA screen with Lipofectamine 2000, LPS-activated monocytes
# Description: Human monocytes (CD14+) treated with LPS induce TNF-α-specific mRNA within approximately 2 hrs, followed by peak levels of TNF-α protein 2 hrs later. siRNAs were screened for knockdown activity by transfecting monocytes with siRNA candidate sequences using Lipofectamine 2000, treating infected cells with LPS, and measuring TNF-α mRNA levels approximately 16 hrs later.
# To quantitate mRNA level in the cells, both house keeping gene (cypB) and target gene (TNF-α) mRNA were measured, and the reading for TNF-α was normalized with cypB to obtain relative luminescence unit. To quantify protein level, the TNF-α ELISA from BD Bioscience was used according to manufacturer's specification.
# [6] = siRNA 4 nM complexed with 1.6 uM PN73
# [7] = siRNA 4 nM complexed with 1.6 uM PN509
# [8] = siRNA 20 nM complexed with 0.5 uM PN250
# [9] = siRNA 20 nM complexed with 0.75 uM PN250
# [10] = siRNA 20 nM complexed with 1 uM PN250
substance,measurement,setting,value
"CUUGUGAUUAUUUAUUAUUUA (siRNA; delivered as complex with delivery-enhancing peptide, further chemistry not given here) [LC18]",KD (%) TNF-α,TNF-α mRNA; [6],63.44%
same,KD (%) TNF-α,TNF-α mRNA; [7],58.13%
GCCUGUACCUCAUCUACUC (siRNA; chemistry not fully specified) [YC12],KD (%) TNF-α,TNF-α mRNA; [6],43.60%
same,KD (%) TNF-α,TNF-α mRNA; [7],64.37%
same,KD (%) TNF-α,TNF-α mRNA; [8],17.06%
same,KD (%) TNF-α,TNF-α mRNA; [9],21.66%
same,KD (%) TNF-α,TNF-α mRNA; [10],15.91%
same,"Relative effect of siRNA, paw score",[1]; group TNF #6,Overall low paw score. YC12
"AACUGAAAGCAUGAUCCGGGA (siRNA; delivered as complex with delivery-enhancing peptide, further chemistry not given here) [LC4]",KD (%) TNF-α,TNF-α mRNA; [6],26.67%
same,KD (%) TNF-α,TNF-α mRNA; [7],22.71%
"AACCAAUGCCCUCCUGGCCAA (siRNA; delivered as complex with delivery-enhancing peptide, further chemistry not given here) [LC14]",KD (%) TNF-α,TNF-α mRNA; [6],50.76%
same,KD (%) TNF-α,TNF-α mRNA; [7],42.78%
C(YGRKKRRQRRRG)2 [PN204],Percent Uptake LacZ Cells,9L/LacZ cells [2],83%
"CCAGGGACCUCUCUCUAAU (siRNA; delivered as complex with delivery-enhancing peptide, further chemistry not given here) [TNF-4]",KD (%) TNF-α,TNF-α mRNA; [8],0.90%
same,KD (%) TNF-α,TNF-α mRNA; [9],14.39%
same,KD (%) TNF-α,TNF-α mRNA; [10],26.47%
Histone H2B,measured beta-galactosidase activity,9L/LacZ cells [3],37.97%
infliximab [Ramicade],Quantity of TNF-α protein in blood plasma by ELISA,human TNF-α; age 7 weeks,102.24 pg/mL
same,Quantity of TNF-α protein in blood plasma by ELISA,human TNF-α; age 8 weeks,39.27 pg/mL
same,Quantity of TNF-α protein in blood plasma by ELISA,human TNF-α; age 9 weeks,25.80 pg/mL
same,RA score (paw and joint inflammation),"[1]; twice weekly from age 6 weeks, effect beginning at age 7 weeks",RA score stabilization
"AAGCUCCAGUGGCUGAACCGC (siRNA; delivered as complex with delivery-enhancing peptide, further chemistry not given here) [LC9]",KD (%) TNF-α,TNF-α mRNA; [6],40.32%
same,KD (%) TNF-α,TNF-α mRNA; [7],58.20%
"AAGGGUGACCGACUCAGCGcU (siRNA; as printed in the source, key not given here) [LC6]",KD (%) TNF-α,TNF-α mRNA; [6],44.10%
same,KD (%) TNF-α,TNF-α mRNA; [7],50.19%
"AACCUCCUCUCUGCCAUCAAG (siRNA; delivered as complex with delivery-enhancing peptide, further chemistry not given here) [LC3]",KD (%) TNF-α,TNF-α mRNA; [6],23.17%
same,KD (%) TNF-α,TNF-α mRNA; [7],30.14%
AAUCUCGACUUUGCCGAGUCU (chemistry not given here) [LC5],KD (%) TNF-α,TNF-α mRNA; [6],46.78%
same,KD (%) TNF-α,TNF-α mRNA; [7],34.93%
AAVALLPAVLLALLAPRKKRRQRRRPPQC [PN27],Percent Uptake Primary MTF Cells,[4],61%
same,Percent Uptake LacZ Cells,9L/LacZ cells [2],86%
"GCAGGUCUACUUUGGGAUC (siRNA; delivered as complex with delivery-enhancing peptide, further chemistry not given here) [YC18]",KD (%) TNF-α,TNF-α mRNA; [8],20.72%
same,KD (%) TNF-α,TNF-α mRNA; [9],17.82%
same,KD (%) TNF-α,TNF-α mRNA; [10],24.66%
"AAUGGCGUGGAGCUGAGAGAU (siRNA; delivered as complex with delivery-enhancing peptide, further chemistry not given here) [LC2]",KD (%) TNF-α,TNF-α mRNA; [6],19.06%
same,KD (%) TNF-α,TNF-α mRNA; [7],37.04%
NH2-RKKRRQRRRPPQCAAVALLPAVLLALLAP-amide (H-RKKRRQRRRPPQCAAVALLPAVLLALLAP-NH2) [PN28],Percent Uptake Primary MTF Cells,[4],81%
same,Percent Uptake LacZ Cells,9L/LacZ cells [2],79%
"AACCCAUGUGCUCCUCACCCA (siRNA; delivered as complex with delivery-enhancing peptide, further chemistry not given here) [LC8]",KD (%) TNF-α,TNF-α mRNA; [6],41.24%
same,KD (%) TNF-α,TNF-α mRNA; [7],47.35%
"UAGCCCAUGUUGUAGCAAA (siRNA; delivered with peptide PN73, further chemistry not given here) [TNF-α9]",Relative protein expression level of IFN-γ,[5],Background
same,Relative protein expression level of IL-12,[5],Background
same,Relative protein expression level of INF-α,[5],Background
same,"IL-1β, IL-6 and MIP-1α protein expression levels",[5]; transfection with lipofectamine,increase
same,"Relative effect of siRNA, effectiveness relative to Ramicade by week 8",[1]; group TNF #7,LC20 and TNF-α9 are more
same,RA progression by paw score at week 8 (FIG. 4),[1],delayed RA progression
same,IL-1β mRNA levels,IL-1β mRNA,significant increase
"CUGAUUAAGUUGUCUAAACAA (siRNA; delivered as complex with delivery-enhancing peptide, further chemistry not given here) [LC16]",KD (%) TNF-α,TNF-α mRNA; [6],55.91%
same,KD (%) TNF-α,TNF-α mRNA; [7],40.06%
UAGGGUCGGAACCCAAGCUUA [LC20],Relative protein expression level of IFN-γ,[5],Background
same,Relative protein expression level of IL-12,[5],Background
same,Relative protein expression level of INF-α,[5],Background
same,interferon response (ELISA),[5],no interferon response
same,TNF-α knockdown activity (FIG. 6-C),"TNF-α mRNA; absence of PN73, 0-2.5 nM",little knockdown activity
same,KD (%) TNF-α,TNF-α mRNA; [6],42.68%
same,KD (%) TNF-α,TNF-α mRNA; [7],71.12%
same,KD (%) TNF-α,TNF-α mRNA; [8],−3.80%
same,KD (%) TNF-α,TNF-α mRNA; [9],10.72%
same,KD (%) TNF-α,TNF-α mRNA; [10],26.53%
same,decrease in TNF-α gene expression relative to Qneg control (FIG. 6-B),"TNF-α mRNA; siRNA complexed with PN73 1:1, 0-2.5 nM",~30%
same,delay in RA progression relative to lower doses,"[1]; 2 mg/kg LC20, PN73 1:5",greatest relative observed delay in RA progression
same,"Relative effect of siRNA, effectiveness relative to Ramicade","[1]; group TNF #1 (LC20, Ramicade, PBS)",LC20 is as effective as
same,"Relative effect of siRNA, paw score",[1]; group TNF #4,Overall low paw score
same,"Relative effect of siRNA, paw score",[1]; group TNF #6,Overall low paw score. YC12
same,"Relative effect of siRNA, effectiveness relative to Ramicade by week 8",[1]; group TNF #7,LC20 and TNF-α9 are more
same,"Relative effect of siRNA, effectiveness relative to Ramicade by week 11",[1]; group TNF #7,week 8; LC20 is equally
same,RA progression by paw score at week 8 (FIG. 4),[1],delayed RA progression
"GCCCGACUAUCUCGACUUU (siRNA; delivered as complex with delivery-enhancing peptide, further chemistry not given here) [YC17]",KD (%) TNF-α,TNF-α mRNA; [8],17.30%
same,KD (%) TNF-α,TNF-α mRNA; [9],29.82%
same,KD (%) TNF-α,TNF-α mRNA; [10],24.68%
AAUCGGCCCGACUAUCUCGACUU (chemistry not given here) [LC1],KD (%) TNF-α,TNF-α mRNA; [6],20.08%
same,KD (%) TNF-α,TNF-α mRNA; [7],31.13%
CCUCAGCCUCUUCUCCUUCCUGA (chemistry not given here) [LC12],KD (%) TNF-α,TNF-α mRNA; [6],40.61%
same,KD (%) TNF-α,TNF-α mRNA; [7],17.03%
GCGUGGAGCUGAGAGAUAA (chemistry not given here) [TNF-α-1],reduction in TNF-α protein level,TNF-α protein,75%
same,TNF-α mRNA knockdown,"TNF-α mRNA; siRNA screen with Lipofectamine 2000, LPS-activated monocytes",50%
NH2-LLETLLKPFQCRICMRNFSTRQARRNHRRRHRR-amide (H-LLETLLKPFQCRICMRNFSTRQARRNHRRRHRR-NH2; cysteine pairing not given here) [PN202],Percent Uptake LacZ Cells,9L/LacZ cells [2],71%
"AAUCAGCCGCAUCGCCGUCUC (siRNA; delivered as complex with delivery-enhancing peptide, further chemistry not given here) [LC7]",KD (%) TNF-α,TNF-α mRNA; [6],42.76%
same,KD (%) TNF-α,TNF-α mRNA; [7],56.11%
GCCUGUAGCCCAUGUUGUA (chemistry not given here) [TNF-α-2],RA progression by paw score at week 8 (FIG. 4),[1],delayed RA progression
CCGACUCAGCGCUGAGAUCAA (siRNA; chemistry not fully specified) [LC17],Relative protein expression level of IFN-γ,[5],Background
same,Relative protein expression level of IL-12,[5],Background
same,Relative protein expression level of INF-α,[5],Background
same,interferon response (ELISA),[5],no interferon response
same,KD (%) TNF-α,TNF-α mRNA; [6],50.78%
same,KD (%) TNF-α,TNF-α mRNA; [7],48.94%
same,"Relative effect of siRNA, paw score",[1]; group TNF #6,Overall low paw score. YC12
"GCGUGGAGCUGAGAGAUAA (siRNA; delivered as complex with delivery-enhancing peptide, further chemistry not given here) [YC11]",KD (%) TNF-α,TNF-α mRNA; [8],13.70%
same,KD (%) TNF-α,TNF-α mRNA; [9],21.09%
same,KD (%) TNF-α,TNF-α mRNA; [10],33.10%
"AAGCCUGUAGCCCAUGUUGUA (siRNA; delivered as complex with delivery-enhancing peptide, further chemistry not given here) [LC19]",KD (%) TNF-α,TNF-α mRNA; [6],61.83%
same,KD (%) TNF-α,TNF-α mRNA; [7],56.38%

# From patent US20100113332A1, “METHOD OF TREATING AN INFLAMMATORY DISEASE BY DOUBLE STRANDED RIBONUCLEIC ACID” (NASTECH PHARMACEUTICAL COMPANY INC., priority 2004, published 2010)
